In US20110034703A1, “CRYSTAL FORMS OF N-[2-(DIETHYLAMINO)ETHYL]-5-[(5-FLUORO-1,2-DIHYDRO-2-OXO-3H-INDOL-3-YLIDENE)METHYL]-2,4-DIMETHYL-1H-PYRROLE-3-CARBOXAMIDE AND METHODS FOR THEIR PREPARATION” (ratiopharm GmbH, priority 2008, published 2011):
“Also recorded” adds a separate entry of the source.

Experiment: Dynamic moisture sorption gravimetry (DMSG), hygroscopicity
Format: physicochemical
Conditions: for hygroscopicity (in words): DMSG data; for moisture sorption referred to the weight of the sample: DMSG, change in RH of 5% per hour
Protocol: DMSG was performed using an SPS11-100n instrument (Projekt Messtechnik) at a constant temperature of 25° C. and a change in RH of 5% per hour including isohumid conditions for 5 hours at 0% RH and for 2 hours at 50% RH.

| SMILES | hygroscopicity (in words) | hygroscopicity (in words) (listed as polymorph I) | hygroscopicity (in words) (listed as polymorphic form I) | moisture sorption referred to the weight of the sample (25° C.) | hygroscopicity (in words) (listed as polymorphic form II) | moisture sorption referred to the weight of the sample (25° C., listed as polymorphic form II) | hygroscopicity (in words) (listed as polymorphic form III) | weight gain under DMSG (even at a relative humidity of 95%, 25° C.) |
| --- | --- | --- | --- | --- | --- | --- | --- | --- |
| CCN(CC)CCNC(=O)c1c(C)[nH]c(/C=C2\C(=O)Nc3ccc(F)cc32)c1C [Polymorph I, N-[2-(diethylamino)ethyl]-5-[(5-fluoro-1,2-dihydro-2-oxo-3H-indol-3-ylidene)methyl]-2,4-dimethyl-1H-pyrrole-3-carboxamide] | low hygroscopicity; also recorded: only very slightly hygroscopic | only slightly hygroscopic | very low hygroscopicity | about 1% |  |  |  |  |
| CCN(CC)CCNC(=O)c1c(C)[nH]c(/C=C2\C(=O)Nc3ccc(F)cc32)c1C [Polymorph II, N-[2-(diethylamino)ethyl]-5-[(5-fluoro-1,2-dihydro-2-oxo-3H-indol-3-ylidene)methyl]-2,4-dimethyl-1H-pyrrole-3-carboxamide] | clearly hygroscopic |  |  |  | slightly more hygroscopic; also recorded: some hygroscopicity | more than 6% |  |  |
| CCN(CC)CCNC(=O)c1c(C)[nH]c(/C=C2\C(=O)Nc3ccc(F)cc32)c1C [Polymorph III, N-[2-(diethylamino)ethyl]-5-[(5-fluoro-1,2-dihydro-2-oxo-3H-indol-3-ylidene)methyl]-2,4-dimethyl-1H-pyrrole-3-carboxamide] | very low hygroscopicity; also recorded: not hygroscopic at all |  |  |  |  |  | not hygroscopic | does not gain weight |
